# Key:
# Experiment in all cases: relative viability (nuclei count vs DMSO), 5 days (fraction); higher = more cells survive
# BAY61-3606 + Navitoclax = compound: COC1=C(C=C(C=C1)C2=CC3=NC=CN3C(=N2)NC4=C(C=CC=N4)C(=O)N)OC [BAY61-3606] + CC1(C)CCC(c2ccc(Cl)cc2)=C(CN2CCN(c3ccc(C(=O)NS(=O)(=O)c4ccc(N[C@H](CCN5CCOCC5)CSc5ccccc5)c(S(=O)(=O)C(F)(F)F)c4)cc3)CC2)C1 [Navitoclax] (partner 0.5 µM)
# Procedure, shortened: (§1)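 Lung cancer cell lines were seeded in 1536-well plates and dosed by pin tool the next day, with either a single drug or a fixed anchor-drug dose combined with five library-drug doses (not always all listed) spaced in √10 steps. Five days later, one step fixed the cells and stained their nuclei (final 0.05% Triton X-100, 1% formaldehyde, 1 ug/ml Hoechst), and nuclei were counted on 4× images. Relative viability is the nuclei count in treated wells divided by the count in vehicle wells, and each value is the median of duplicate plates.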
# Doxorubicin + Tozasertib = compound: COc1cccc2c1C(=O)c1c(O)c3c(c(O)c1C2=O)C[C@@](O)(C(=O)CO)C[C@@H]3O[C@H]1C[C@H](N)[C@H](O)[C@H](C)O1 [Doxorubicin] + Cc1cc(Nc2cc(N3CCN(C)CC3)nc(Sc3ccc(NC(=O)C4CC4)cc3)n2)n[nH]1 [Tozasertib] (partner 0.1 µM)
# Procedure, shortened: as §1
# Doxorubicin + Phenformin = compound: COc1cccc2c1C(=O)c1c(O)c3c(c(O)c1C2=O)C[C@@](O)(C(=O)CO)C[C@@H]3O[C@H]1C[C@H](N)[C@H](O)[C@H](C)O1 [Doxorubicin] + N=C(N)NC(=N)NCCc1ccccc1 [Phenformin] (partner 250 µM)
# Procedure, shortened: as §1
# Doxorubicin + Decitabine = compound: COc1cccc2c1C(=O)c1c(O)c3c(c(O)c1C2=O)C[C@@](O)(C(=O)CO)C[C@@H]3O[C@H]1C[C@H](N)[C@H](O)[C@H](C)O1 [Doxorubicin] + Nc1ncn([C@H]2C[C@H](O)[C@@H](CO)O2)c(=O)n1 [Decitabine] (partner 2 µM)
# Procedure, shortened: as §1
cell line,measurement,setting,value
UMC-11,relative viability,BAY61-3606 + Navitoclax; first compound 0.02 µM,0.339
same,relative viability,BAY61-3606 + Navitoclax; first compound 0.06325 µM,0.324
same,relative viability,BAY61-3606 + Navitoclax; first compound 0.2 µM,0.309
same,relative viability,BAY61-3606 + Navitoclax; first compound 0.6325 µM,0.344
same,relative viability,BAY61-3606 + Navitoclax; first compound 2 µM,0.164
same,relative viability,Doxorubicin + Tozasertib; first compound 0.001 µM,0.22
same,relative viability,Doxorubicin + Tozasertib; first compound 0.003162 µM,0.215
same,relative viability,Doxorubicin + Tozasertib; first compound 0.01 µM,0.209
same,relative viability,Doxorubicin + Tozasertib; first compound 0.03162 µM,0.21
same,relative viability,Doxorubicin + Tozasertib; first compound 0.1 µM,0.208
same,relative viability,Doxorubicin + Phenformin; first compound 0.001 µM,0.307
same,relative viability,Doxorubicin + Phenformin; first compound 0.003162 µM,0.247
same,relative viability,Doxorubicin + Phenformin; first compound 0.01 µM,0.313
same,relative viability,Doxorubicin + Phenformin; first compound 0.03162 µM,0.207
same,relative viability,Doxorubicin + Phenformin; first compound 0.1 µM,0.233
same,relative viability,Doxorubicin + Decitabine; first compound 0.001 µM,0.641
same,relative viability,Doxorubicin + Decitabine; first compound 0.003162 µM,0.497
same,relative viability,Doxorubicin + Decitabine; first compound 0.01 µM,0.619
same,relative viability,Doxorubicin + Decitabine; first compound 0.03162 µM,0.385
same,relative viability,Doxorubicin + Decitabine; first compound 0.1 µM,0.41

# From the supplement of paper PMC10307832
